Laboratory results taken from patent US12258336B2, “Preparation of seimicarbazide-sensitive amine oxidase inhibitor and use thereof” (SHANGHAI ENNOVABIO PHARMACEUTICALS CO., LTD., priority 2018, dated 2025).
Where two headings read alike, the source gives them in different places.

Key:
rat SSAO protein = target: T1, rat SSAO protein (Rattus norvegicus, UniProt O08590); experiment: In vitro inhibitory activity on SSAO/VAP-1 (MAO-Glo assay), rat; assay type: biochemical
T1 construct: Eli Lilly (provided, not a catalogue product)
T1 sequence (O08590 1-763): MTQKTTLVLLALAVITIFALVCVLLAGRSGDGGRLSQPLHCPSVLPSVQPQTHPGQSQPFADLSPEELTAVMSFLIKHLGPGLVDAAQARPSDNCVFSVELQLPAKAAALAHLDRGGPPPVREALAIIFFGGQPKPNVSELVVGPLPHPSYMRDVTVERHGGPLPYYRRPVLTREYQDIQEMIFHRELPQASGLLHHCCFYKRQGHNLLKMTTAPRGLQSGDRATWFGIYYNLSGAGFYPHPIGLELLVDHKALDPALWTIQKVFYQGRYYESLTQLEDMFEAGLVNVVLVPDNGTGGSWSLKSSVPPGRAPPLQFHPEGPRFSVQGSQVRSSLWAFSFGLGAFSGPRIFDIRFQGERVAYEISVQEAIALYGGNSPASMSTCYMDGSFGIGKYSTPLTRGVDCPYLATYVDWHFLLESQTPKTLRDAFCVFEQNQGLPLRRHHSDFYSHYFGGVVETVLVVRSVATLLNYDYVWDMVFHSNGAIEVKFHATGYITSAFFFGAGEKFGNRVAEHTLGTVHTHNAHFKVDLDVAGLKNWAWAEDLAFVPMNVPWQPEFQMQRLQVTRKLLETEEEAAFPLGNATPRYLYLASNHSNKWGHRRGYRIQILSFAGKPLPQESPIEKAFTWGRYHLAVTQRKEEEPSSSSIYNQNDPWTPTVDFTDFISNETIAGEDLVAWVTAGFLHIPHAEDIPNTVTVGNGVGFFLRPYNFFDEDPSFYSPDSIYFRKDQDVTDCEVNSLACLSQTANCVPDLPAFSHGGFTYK
Procedure: This assay was used to evaluate the in vitro inhibitory activity of the compounds on SSAO/VAP-1 of different species. Recombinant human SSAO protein, mouse SSAO protein or rat SSAO protein (provided by Eli Lilly) were used. The enzyme activity detection kit, MAO-Glo Assay kit (V1402) was purchased from Promega. Enzyme reaction buffer (50 mM HEPES, 120 mM NaCl, 5 mM KCl, 2 mM CaCl2, 1.4 mM MgCl2, 0.001% Tween-20, pH7.4) was prepared. The test compound was dissolved in DMSO and diluted by 3-fold concentration in gradient. The final concentration of test compound in a 10 μL reaction system was 1 μM to 0.05 nM when SSAO was detected. The content of DMSO in the detection reaction was 1%. After the solution of test compound in DMSO was diluted in the enzyme reaction buffer at a volume ratio of 1:25, 2.5 μL of which was added to each well of detection plate, two replicates for each concentration. 5 μL of SSAO protein diluted in the enzyme reaction buffer was added to each well, the final concentration of which was 10 nM to 80 nM in 10 μL reaction system. The mixture was incubated at room temperature for 10 minutes. 2.5 μL of the reaction substrate diluted in the enzyme reaction buffer was added to each well, the final concentration of which was 10 μM in 10 μL reaction system. After the mixture was reacted at room temperature for 120 minutes, 10 μL of detection reagent was added to each well. The reaction solution was incubated for 20 minutes at room temperature, and the plate was read with Synergy Neo 2 for detection. The value was converted into inhibition rate by the following formula: Inhibition rate=(Signalpositive−Signaltest)/(Signalpositive−Signalnegative)×100%
Signalpositive was positive control without test compound. Signalnegative was negative control without test compound and SSAO enzyme, and Signaltest was detection value of each compound at different concentrations. IC50 value was calculated by using 4 parameter curve fitting.

SSAO/VAP-1 = target: T2, SSAO/VAP-1 (Rattus norvegicus, UniProt O08590); experiment: Inhibitory activity on SSAO/VAP-1 in animal tissues after oral administration; assay type: in vivo; conditions: 1 mg/kg, 24 hours post single administration, mean ± SEM
T2 construct: from tissue; host or cells: rat plasma, brain, retina, small intestine, lung, liver, kidney
T2 sequence (O08590 1-763): T1 sequence (O08590 1-763)
Procedure: MAO-Glo Assay kit (Promega, V1402) was used to determine the activity of SSAO in animal tissues. After test compounds were adminstered to the animal, SSAO enzyme activity was calculated by measuring the activity of the monoamine oxidases in the animal tissue homogenate that was insensitive to MAO inhibitors Clogyline and Pargyline. The compounds were orally administered to rats at different doses, and same volume of vehicle was orally administered to control animals. Animal plasma, brain, retina, small intestine, lung, liver, and kidney were respectively collected 24 hours after administration (the animals were perfused with PBS before the collection of small intestine, lung, liver, and kidney) and stored in a −80° C. refrigerator until analysis. Each tissue was homogenized in tissue homogenate lysis buffer (20 mM HEPES, pH 7.4, 150 mM NaCl, 1 mM EDTA, 1 mM EGTA, 1% Triton X-100 and 1× Roche Complete protease inhibitor tablet). The homogenate was centrifuged at 12000 rpm at 4° C. for 30 minutes to remove tissue fragments. 5 μL of supernatant and 2 μL of mixture of Clogyline (10 μM) and Pargyline (10 μM) were incubated for 10 minutes at room temperature. Then 2 μL of substrate from MAO-Glo assay kit was added to the mixture, and reacted at room temperature for 60 minutes. Detection reagents were added to quench the reaction according to instructions. The fluorescein data was read by Biotek Neo2. The activity of monoamine oxidase in tissues that is not sensitive to MAO inhibitors was used to represent the activity of SSAO. Percentage of SSAO activity in administered animals was compared with that of control animals to calculate the compound inhibition rate.

## COC1CC2CCC(C1)N2c1ncc(OC/C(=C/F)CN)cn1 (stereo not shown) [Example 12]
Rat SSAO protein
  IC50: < 0.1 µM
SSAO/VAP-1; brain, read-out: remaining SSAO activity percentage (SSAO activity %), Brain
  remaining activity at 1 mg/kg: 63.1 ± 12.1%
SSAO/VAP-1; plasma, read-out: remaining SSAO activity percentage (SSAO activity %), Plasma
  remaining activity at 1 mg/kg: 25.6 ± 3%
SSAO/VAP-1; retina, read-out: remaining SSAO activity percentage (SSAO activity %), Retina
  remaining activity at 1 mg/kg: 24.6 ± 3.5%
